Data as given in the NIST ThermoML archive (doi:10.1016/j.jct.2018.02.005).
Numbers after ± are expanded uncertainties.

Test: refractive index (Na D-line) (dimensionless)
Settings: 298.15 K; 100 kPa; Liquid; Standard Abbe refractometry

| refractive index | Compound |
| --- | --- |
| 1.37503 ± 0.00033 | CC(C)O [propan-2-ol] |
| 1.32655 ± 0.00031 | CO [methanol] |
| 1.35947 ± 0.00033 | CCO [ethanol] |
| 1.33251 ± 0.00031 | O [water] |
